Measured values reported in ChEMBL document CHEMBL5442175, “EUbOPEN Chemogenomics Library - PDSP Secondary Binding” (2024).

How the values were obtained:
[1] = target: 5-hydroxytryptamine receptor 1E (Homo sapiens, UniProt P28566); experiment: (§1) PDSP Secondary Binding target: HTR1E - Compounds are tested at 10 uM concentration, plate are incubated at room temperature in the dark for 90 minutes. Reaction are stopped by vacuum filtration onto 0.3% polyethyleneimine soaked filter mats using Filtermate harvester. Scintillation cocktail is then melted onto microwave-dried filters on a hot plate and the radio activity is counted in Microbia counter.
Chain of 5-hydroxytryptamine receptor 1E (P28566 whole entry): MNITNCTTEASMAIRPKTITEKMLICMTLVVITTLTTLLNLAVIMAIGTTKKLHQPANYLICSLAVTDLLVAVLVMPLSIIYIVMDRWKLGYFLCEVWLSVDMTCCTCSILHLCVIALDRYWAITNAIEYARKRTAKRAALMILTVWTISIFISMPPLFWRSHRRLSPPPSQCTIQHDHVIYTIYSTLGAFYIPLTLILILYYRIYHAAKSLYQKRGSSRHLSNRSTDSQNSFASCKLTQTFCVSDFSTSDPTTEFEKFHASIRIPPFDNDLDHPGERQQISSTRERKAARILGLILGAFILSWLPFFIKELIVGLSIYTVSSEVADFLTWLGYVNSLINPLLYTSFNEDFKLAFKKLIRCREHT

[2] = target: 5-hydroxytryptamine receptor 6 (Homo sapiens, UniProt P50406); experiment: as §1, with “HTR6” for “HTR1E”
Chain of 5-hydroxytryptamine receptor 6 (P50406 whole entry): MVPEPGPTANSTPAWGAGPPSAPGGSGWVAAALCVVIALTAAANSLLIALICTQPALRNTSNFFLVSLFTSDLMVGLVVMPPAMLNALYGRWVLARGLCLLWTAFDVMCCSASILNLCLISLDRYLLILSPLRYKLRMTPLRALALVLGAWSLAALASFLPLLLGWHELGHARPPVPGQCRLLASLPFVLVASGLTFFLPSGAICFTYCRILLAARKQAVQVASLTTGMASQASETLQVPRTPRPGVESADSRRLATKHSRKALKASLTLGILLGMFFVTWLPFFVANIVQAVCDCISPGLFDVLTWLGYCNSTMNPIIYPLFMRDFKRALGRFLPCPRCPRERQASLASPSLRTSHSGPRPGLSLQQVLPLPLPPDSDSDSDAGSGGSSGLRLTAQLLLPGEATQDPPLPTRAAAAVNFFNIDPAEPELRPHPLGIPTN

[3] = target: Sigma intracellular receptor 2 (Homo sapiens, UniProt Q5BJF2); experiment: as §1, with “TMEM97” for “HTR1E”
Chain of Sigma intracellular receptor 2 (Q5BJF2 whole entry): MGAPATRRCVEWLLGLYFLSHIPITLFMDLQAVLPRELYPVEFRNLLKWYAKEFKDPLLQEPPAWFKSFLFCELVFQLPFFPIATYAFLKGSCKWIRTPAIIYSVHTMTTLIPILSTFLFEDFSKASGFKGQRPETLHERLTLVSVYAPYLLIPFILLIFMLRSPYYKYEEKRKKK

[4] = target: 5-hydroxytryptamine receptor 5A (Homo sapiens, UniProt P47898); experiment: as §1, with “HTR5A” for “HTR1E”
Chain of 5-hydroxytryptamine receptor 5A (P47898 whole entry): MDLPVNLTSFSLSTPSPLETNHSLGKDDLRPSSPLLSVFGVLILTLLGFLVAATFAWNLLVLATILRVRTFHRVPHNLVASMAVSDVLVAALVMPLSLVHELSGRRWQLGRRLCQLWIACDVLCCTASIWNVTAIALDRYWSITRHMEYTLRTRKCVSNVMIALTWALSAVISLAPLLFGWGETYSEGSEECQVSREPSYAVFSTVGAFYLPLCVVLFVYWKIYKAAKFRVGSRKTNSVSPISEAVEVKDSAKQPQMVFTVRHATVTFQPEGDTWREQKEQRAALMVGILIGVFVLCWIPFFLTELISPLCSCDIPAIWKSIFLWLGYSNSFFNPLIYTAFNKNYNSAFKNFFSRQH

[5] = target: T1, Alpha-2A adrenergic receptor (Homo sapiens, UniProt P08913); experiment: as §1, with “ADRA2A” for “HTR1E”
T1 sequence (P08913 whole entry): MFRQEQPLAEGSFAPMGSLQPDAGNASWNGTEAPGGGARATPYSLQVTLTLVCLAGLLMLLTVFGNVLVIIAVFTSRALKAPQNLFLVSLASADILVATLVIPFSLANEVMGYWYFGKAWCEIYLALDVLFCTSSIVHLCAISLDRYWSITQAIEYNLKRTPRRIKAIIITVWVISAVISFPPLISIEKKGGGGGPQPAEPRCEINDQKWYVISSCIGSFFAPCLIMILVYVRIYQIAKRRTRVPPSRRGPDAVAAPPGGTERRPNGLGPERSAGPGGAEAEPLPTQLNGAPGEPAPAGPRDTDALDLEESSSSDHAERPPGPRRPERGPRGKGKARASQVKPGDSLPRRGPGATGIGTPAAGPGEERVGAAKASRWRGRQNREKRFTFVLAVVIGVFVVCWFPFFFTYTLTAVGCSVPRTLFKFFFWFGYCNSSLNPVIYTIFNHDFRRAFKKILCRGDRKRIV

[6] = target: Sodium-dependent noradrenaline transporter (Homo sapiens, UniProt P23975); experiment: as §1, with “SLC6A2” for “HTR1E”
Chain of Sodium-dependent noradrenaline transporter (P23975 whole entry): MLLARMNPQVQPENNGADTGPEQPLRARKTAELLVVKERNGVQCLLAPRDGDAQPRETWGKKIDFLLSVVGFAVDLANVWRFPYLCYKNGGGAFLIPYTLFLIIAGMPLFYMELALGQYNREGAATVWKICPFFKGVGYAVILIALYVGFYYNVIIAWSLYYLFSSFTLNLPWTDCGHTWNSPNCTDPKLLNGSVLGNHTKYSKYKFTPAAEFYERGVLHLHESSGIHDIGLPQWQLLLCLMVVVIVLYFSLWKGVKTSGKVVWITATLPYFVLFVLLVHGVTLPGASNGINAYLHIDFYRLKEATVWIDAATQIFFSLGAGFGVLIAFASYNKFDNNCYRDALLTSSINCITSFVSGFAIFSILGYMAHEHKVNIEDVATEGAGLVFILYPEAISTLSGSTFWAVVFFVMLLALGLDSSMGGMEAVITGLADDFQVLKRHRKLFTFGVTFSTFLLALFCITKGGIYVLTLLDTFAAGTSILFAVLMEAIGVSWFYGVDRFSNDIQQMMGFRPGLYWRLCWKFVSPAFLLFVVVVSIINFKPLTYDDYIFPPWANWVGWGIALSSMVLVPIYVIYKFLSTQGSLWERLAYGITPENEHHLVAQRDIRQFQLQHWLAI

[7] = target: D(2) dopamine receptor (Homo sapiens, UniProt P14416); experiment: as §1, with “DRD2” for “HTR1E”
[8] = target: 5-hydroxytryptamine receptor 1B (Homo sapiens, UniProt P28222); experiment: as §1, with “HTR1B” for “HTR1E”
[9] = target: Beta-2 adrenergic receptor (Homo sapiens, UniProt P07550); experiment: as §1, with “ADRB2” for “HTR1E”
Chain of Beta-2 adrenergic receptor (P07550 whole entry): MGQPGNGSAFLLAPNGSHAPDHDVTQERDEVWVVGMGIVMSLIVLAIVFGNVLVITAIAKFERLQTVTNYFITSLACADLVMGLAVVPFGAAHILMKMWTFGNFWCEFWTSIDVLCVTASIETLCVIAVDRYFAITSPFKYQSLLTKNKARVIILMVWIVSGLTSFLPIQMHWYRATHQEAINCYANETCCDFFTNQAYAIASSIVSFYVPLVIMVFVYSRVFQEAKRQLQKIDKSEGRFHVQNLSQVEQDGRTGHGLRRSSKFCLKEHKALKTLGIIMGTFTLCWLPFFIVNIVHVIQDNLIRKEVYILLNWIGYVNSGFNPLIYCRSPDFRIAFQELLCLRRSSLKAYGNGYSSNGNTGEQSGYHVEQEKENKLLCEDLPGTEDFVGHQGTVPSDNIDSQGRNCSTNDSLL

[10] = target: 5-hydroxytryptamine receptor 2B (Homo sapiens, UniProt P41595); experiment: as §1, with “HTR2B” for “HTR1E”
Chain of 5-hydroxytryptamine receptor 2B (P41595 whole entry): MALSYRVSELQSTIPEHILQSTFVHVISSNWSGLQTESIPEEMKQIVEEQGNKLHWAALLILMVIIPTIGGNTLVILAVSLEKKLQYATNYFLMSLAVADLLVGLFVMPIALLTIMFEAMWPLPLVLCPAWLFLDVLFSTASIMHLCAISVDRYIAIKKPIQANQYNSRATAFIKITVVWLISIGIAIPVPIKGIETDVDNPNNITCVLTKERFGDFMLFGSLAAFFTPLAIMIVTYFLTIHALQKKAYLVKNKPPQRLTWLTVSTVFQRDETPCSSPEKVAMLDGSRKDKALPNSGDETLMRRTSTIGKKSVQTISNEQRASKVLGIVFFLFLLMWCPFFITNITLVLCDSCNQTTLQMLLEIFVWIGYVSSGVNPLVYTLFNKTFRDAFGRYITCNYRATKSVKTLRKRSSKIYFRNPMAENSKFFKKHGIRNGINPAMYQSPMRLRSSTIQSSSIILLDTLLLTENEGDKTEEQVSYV

[11] = target: D(3) dopamine receptor (Homo sapiens, UniProt P35462); experiment: as §1, with “DRD3” for “HTR1E”
Chain of D(3) dopamine receptor (P35462 whole entry): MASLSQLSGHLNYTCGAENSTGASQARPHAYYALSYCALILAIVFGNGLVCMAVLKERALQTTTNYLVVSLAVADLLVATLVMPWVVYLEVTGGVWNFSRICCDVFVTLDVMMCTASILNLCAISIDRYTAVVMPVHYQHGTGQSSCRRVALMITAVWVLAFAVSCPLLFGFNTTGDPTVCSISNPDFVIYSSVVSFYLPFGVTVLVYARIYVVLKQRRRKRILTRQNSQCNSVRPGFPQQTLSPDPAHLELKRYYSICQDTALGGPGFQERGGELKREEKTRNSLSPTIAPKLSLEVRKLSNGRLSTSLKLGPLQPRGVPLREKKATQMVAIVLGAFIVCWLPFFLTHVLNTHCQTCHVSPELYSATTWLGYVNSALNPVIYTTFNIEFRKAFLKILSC

[12] = target: 5-hydroxytryptamine receptor 1D (Homo sapiens, UniProt P28221); experiment: as §1, with “HTR1D” for “HTR1E”
Chain of 5-hydroxytryptamine receptor 1D (P28221 whole entry): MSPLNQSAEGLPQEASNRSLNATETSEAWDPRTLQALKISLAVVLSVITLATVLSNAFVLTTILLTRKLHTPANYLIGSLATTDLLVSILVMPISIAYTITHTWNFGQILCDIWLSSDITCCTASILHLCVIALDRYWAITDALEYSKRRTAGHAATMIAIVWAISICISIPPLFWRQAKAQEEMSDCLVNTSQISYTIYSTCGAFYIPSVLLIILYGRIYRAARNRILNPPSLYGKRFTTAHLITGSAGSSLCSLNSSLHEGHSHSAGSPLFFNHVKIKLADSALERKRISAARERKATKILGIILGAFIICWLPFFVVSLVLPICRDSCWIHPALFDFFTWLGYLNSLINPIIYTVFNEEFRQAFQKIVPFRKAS

[13] = target: Translocator protein (Homo sapiens, UniProt P30536); experiment: as §1, with “TSPO” for “HTR1E”
Chain of Translocator protein (P30536 whole entry): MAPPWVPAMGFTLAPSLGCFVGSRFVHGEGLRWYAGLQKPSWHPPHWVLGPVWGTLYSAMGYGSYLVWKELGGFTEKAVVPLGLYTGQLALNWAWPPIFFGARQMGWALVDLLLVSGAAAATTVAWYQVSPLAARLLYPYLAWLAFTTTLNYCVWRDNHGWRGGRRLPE

[14] = target: Beta-3 adrenergic receptor (Homo sapiens, UniProt P13945); experiment: as §1, with “ADRB3” for “HTR1E”
[15] = target: T2, Alpha-1A adrenergic receptor (Homo sapiens, UniProt P35348); experiment: as §1, with “ADRA1A” for “HTR1E”
T2 sequence (P35348 whole entry): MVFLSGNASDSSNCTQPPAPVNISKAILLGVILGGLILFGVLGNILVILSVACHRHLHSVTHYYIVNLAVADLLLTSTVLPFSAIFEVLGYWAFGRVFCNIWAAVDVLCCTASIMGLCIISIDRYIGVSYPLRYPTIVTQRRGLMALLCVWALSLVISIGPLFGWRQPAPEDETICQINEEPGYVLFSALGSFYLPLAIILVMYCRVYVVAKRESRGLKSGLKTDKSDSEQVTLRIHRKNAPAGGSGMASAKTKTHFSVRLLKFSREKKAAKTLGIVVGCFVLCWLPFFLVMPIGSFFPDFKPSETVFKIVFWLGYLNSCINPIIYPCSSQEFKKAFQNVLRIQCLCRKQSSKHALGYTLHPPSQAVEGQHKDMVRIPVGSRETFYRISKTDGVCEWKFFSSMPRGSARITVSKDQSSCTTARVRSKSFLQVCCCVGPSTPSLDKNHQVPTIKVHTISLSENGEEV

[16] = target: Sodium-dependent dopamine transporter (Homo sapiens, UniProt Q01959); experiment: as §1, with “SLC6A3” for “HTR1E”
[17] = target: T3, 5-hydroxytryptamine receptor 2C (Homo sapiens, UniProt P28335); experiment: as §1, with “HTR2C” for “HTR1E”
T3 sequence (P28335 whole entry): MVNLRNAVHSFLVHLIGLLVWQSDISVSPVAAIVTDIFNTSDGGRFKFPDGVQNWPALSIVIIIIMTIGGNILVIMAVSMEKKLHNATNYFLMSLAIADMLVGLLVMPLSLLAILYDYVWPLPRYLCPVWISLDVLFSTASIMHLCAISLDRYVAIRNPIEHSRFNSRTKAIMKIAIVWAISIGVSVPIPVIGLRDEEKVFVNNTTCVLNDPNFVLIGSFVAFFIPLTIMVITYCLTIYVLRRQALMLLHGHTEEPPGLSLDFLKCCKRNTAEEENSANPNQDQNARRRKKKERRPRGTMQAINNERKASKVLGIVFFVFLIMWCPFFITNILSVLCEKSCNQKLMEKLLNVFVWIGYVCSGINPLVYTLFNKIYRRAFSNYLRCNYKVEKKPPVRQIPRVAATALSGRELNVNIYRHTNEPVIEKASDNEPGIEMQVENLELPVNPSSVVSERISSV

[18] = target: T4, Alpha-1D adrenergic receptor (Homo sapiens, UniProt P25100); experiment: as §1, with “ADRA1D” for “HTR1E”
T4 sequence (P25100 whole entry): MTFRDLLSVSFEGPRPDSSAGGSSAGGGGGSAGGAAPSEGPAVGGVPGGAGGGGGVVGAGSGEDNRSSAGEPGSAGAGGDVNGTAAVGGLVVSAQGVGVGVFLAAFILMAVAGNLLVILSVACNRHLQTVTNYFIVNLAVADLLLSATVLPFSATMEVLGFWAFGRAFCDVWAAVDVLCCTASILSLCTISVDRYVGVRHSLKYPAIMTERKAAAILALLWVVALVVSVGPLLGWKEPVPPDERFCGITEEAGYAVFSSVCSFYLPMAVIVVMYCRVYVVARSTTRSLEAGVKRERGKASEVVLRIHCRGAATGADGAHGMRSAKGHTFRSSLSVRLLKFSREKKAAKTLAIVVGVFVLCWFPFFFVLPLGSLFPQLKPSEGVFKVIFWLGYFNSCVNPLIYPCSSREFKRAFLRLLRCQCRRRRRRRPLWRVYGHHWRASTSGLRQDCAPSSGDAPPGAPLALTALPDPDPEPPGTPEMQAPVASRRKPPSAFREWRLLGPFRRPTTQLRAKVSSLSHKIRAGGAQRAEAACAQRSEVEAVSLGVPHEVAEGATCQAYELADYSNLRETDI

[19] = target: 5-hydroxytryptamine receptor 2A (Homo sapiens, UniProt P28223); experiment: as §1, with “HTR2A” for “HTR1E”
Chain of 5-hydroxytryptamine receptor 2A (P28223 whole entry): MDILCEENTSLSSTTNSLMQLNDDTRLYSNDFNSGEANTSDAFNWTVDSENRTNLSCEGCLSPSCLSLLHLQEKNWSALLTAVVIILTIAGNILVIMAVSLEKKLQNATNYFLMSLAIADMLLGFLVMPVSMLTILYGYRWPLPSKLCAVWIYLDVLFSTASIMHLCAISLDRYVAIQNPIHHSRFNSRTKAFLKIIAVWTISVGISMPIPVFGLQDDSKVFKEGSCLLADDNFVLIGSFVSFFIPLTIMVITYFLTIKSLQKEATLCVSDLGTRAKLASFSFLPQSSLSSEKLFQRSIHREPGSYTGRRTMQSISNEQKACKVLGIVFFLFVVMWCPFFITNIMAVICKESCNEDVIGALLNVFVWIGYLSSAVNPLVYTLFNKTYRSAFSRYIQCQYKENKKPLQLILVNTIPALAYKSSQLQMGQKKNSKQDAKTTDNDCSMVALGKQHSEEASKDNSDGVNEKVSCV

[20] = target: Sodium-dependent serotonin transporter (Homo sapiens, UniProt P31645); experiment: as §1, with “SLC6A4” for “HTR1E”
Chain of Sodium-dependent serotonin transporter (P31645 whole entry): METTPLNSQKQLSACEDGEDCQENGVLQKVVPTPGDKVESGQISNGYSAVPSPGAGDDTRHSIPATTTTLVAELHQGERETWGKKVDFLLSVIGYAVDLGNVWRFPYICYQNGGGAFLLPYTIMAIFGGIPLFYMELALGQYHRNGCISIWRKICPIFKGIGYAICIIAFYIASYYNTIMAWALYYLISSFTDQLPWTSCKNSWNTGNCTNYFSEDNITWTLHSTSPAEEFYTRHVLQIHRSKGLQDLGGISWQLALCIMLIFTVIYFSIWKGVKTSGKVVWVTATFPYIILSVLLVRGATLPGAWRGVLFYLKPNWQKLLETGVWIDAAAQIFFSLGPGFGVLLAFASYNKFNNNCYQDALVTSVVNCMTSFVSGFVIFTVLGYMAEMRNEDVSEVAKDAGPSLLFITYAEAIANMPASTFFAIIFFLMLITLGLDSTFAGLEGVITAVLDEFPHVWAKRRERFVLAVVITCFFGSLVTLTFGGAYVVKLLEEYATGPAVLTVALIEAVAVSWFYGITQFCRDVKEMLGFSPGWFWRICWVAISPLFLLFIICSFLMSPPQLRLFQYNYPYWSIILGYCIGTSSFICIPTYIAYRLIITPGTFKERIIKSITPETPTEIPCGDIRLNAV

[21] = target: T5, Alpha-1B adrenergic receptor (Homo sapiens, UniProt P35368); experiment: as §1, with “ADRA1B” for “HTR1E”
T5 sequence (P35368 whole entry): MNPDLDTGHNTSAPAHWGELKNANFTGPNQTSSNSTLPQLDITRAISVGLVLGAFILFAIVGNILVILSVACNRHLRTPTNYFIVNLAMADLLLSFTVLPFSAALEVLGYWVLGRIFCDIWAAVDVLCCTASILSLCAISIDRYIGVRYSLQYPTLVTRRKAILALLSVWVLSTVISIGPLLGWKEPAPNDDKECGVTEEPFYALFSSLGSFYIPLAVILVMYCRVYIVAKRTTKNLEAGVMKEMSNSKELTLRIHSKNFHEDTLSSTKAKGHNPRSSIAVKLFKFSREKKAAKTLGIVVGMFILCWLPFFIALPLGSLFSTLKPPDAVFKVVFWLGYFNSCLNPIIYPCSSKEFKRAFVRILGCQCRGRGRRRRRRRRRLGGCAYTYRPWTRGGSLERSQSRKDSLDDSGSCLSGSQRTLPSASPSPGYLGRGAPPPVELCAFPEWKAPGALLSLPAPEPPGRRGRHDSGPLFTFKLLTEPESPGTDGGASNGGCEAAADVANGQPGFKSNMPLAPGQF

[22] = target: Sigma non-opioid intracellular receptor 1 (Homo sapiens, UniProt Q99720); experiment: as §1, with “SIGMAR1” for “HTR1E”
[23] = target: T6, D(4) dopamine receptor (Homo sapiens, UniProt P21917); experiment: as §1, with “DRD4” for “HTR1E”
T6 sequence (P21917 whole entry): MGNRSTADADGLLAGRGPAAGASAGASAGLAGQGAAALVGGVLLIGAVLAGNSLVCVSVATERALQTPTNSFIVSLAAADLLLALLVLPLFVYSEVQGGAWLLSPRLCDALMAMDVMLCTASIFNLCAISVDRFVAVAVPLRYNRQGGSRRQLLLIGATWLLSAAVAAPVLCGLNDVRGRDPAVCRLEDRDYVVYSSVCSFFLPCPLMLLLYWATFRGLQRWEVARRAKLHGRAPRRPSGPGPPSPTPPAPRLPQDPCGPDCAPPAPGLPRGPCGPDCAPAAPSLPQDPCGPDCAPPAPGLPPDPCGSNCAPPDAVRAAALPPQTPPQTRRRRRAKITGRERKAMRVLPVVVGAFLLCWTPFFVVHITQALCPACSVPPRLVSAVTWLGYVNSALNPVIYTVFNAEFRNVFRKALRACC

[24] = target: 5-hydroxytryptamine receptor 7 (Homo sapiens, UniProt P34969); experiment: as §1, with “HTR7” for “HTR1E”

| SMILES | Ki [2] [µM] | Ki [3] [µM] | Ki [4] [µM] | Ki [6] [µM] | Ki [9] [µM] | Ki [10] [µM] | Ki [11] [µM] | Ki [12] [µM] | Ki [17] [µM] | Ki [19] [µM] | Ki [20] [µM] | also measured |
| --- | --- | --- | --- | --- | --- | --- | --- | --- | --- | --- | --- | --- |
| NCCc1c[nH]c2ccc(C(N)=O)cc12 | 0.325 | 4.57 | 0.00864 | 2.65 | – | – | – | – | – | – | – | Ki [1]: 0.949 µM; Ki [5]: 2.16 µM; Ki [7]: > 10 µM; Ki [8]: 0.0112 µM |
| CS(=O)(=O)NC[C@H]1CC[C@H](Nc2nc3c(s2)CCSc2ccccc2-3)CC1 | – | 1.72 | 1.04 | – | 7.54 | 0.4 | 0.498 | 1.61 | – | – | – | – |
| CN(C)S(=O)(=O)c1ccc(NC(=S)N2CCC(C(O)(c3ccccc3)c3ccccc3)CC2)cc1 | – | 0.242 | – | – | 5.21 | – | – | – | – | – | – | Ki [13]: 0.969 µM; Ki [14]: 3.5 µM |
| CCc1cc2c(cc1CC)CC(NC[C@H](O)c1ccc(O)c3[nH]c(=O)ccc13)C2 [INDACATEROL] | > 10 | 0.107 | – | 0.569 | 0.106 | – | 1.34 | – | 1.8 | 2.02 | 0.77 | Ki [15]: 0.356 µM; Ki [16]: 0.075 µM; Ki [18]: 0.731 µM; Ki [21]: 4.32 µM |
| N#Cc1c[nH]c2c(C(=O)N3CCN(CCc4ccc(F)cc4)CC3)cccc12 [PRUVANSERIN] | – | 1.18 | – | 2.52 | > 10 | 1.04 | – | 0.588 | 1.47 | 0.00264 | 1.1 | Ki [22]: 0.178 µM; Ki [23]: 0.181 µM; Ki [24]: 2.39 µM |
